A value given as a limit tells only on which side of the number the result lay.

The assay deals with T1, human ADRA2B receptor (Homo sapiens, UniProt P18089).
T1 construct: expressed in transfected cells
T1 sequence (P18089 1-450): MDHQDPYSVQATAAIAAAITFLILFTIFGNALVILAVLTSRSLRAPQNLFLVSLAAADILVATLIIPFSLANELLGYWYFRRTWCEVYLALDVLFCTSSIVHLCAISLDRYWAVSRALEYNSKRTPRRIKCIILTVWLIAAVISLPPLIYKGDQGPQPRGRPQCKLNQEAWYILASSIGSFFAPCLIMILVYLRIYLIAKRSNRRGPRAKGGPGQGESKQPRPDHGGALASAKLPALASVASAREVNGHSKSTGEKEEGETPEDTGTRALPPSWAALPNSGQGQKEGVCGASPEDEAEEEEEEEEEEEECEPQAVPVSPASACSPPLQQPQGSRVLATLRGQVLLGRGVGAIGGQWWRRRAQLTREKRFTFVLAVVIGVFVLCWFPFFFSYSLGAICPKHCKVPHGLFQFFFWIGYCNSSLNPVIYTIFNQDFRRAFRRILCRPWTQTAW
As to the kind of experiment: GTPγS agonist assay, ADRA2B receptor. The following applies: read-out: GTPase - Human Alpha2B EC50. Type of assay: biochemical. Here is the method:
GTP ? S Agonist Assays (ADRA2A, ADRA2B, and ADRA2C Receptors)
Membranes were prepared for GTP ? S binding assays from CHO-K1 cells stably expressing human ADRA2A, ADRA2B, or ADRA2C receptor. Briefly, cells were grown in 5-layer cell culture flasks. Cells were washed with 50 mL of PBS and then dissociated with 0.05% trypsin. Dissociated cells were then collected by centrifugation at 650×g for 8 min at 4° C. Pellets were washed again in PBS by centrifugation and resuspended in 30 mL of 20 mM HEPES, 10 mM EDTA, pH 7.4. After sitting on ice for 30 min, membranes were collected by centrifugation at 50000×g for 15 min at 4° C., resuspended in 30 mL of 20 mM HEPES, 0.1 mM EDTA, pH 7.4 and collected again by centrifugation. Pellets were then washed twice by centrifugation in 30 mL of 20 mM HEPES, pH 7.4, and stored at −80° C. until the day of the assay. On the day of the assay, pellets were thawed on ice and resuspended in 1 mL of 20 mM HEPES, pH 7.4, 10 mM MgCl2, 100 mM NaCl using dounce homogenization. Membrane protein concentration was determined by BCA protein assay (Promega, Madison, WI) according to Promega guidelines.
On the day of the assay, serial dilutions of test compounds were brought up in assay buffer (20 mM HEPES, 10 mM MgCl2, 200 mM NaCl) at 10× final assay concentration. 50 μL/well of membrane homogenates (containing 5 μg of membrane protein for ADRA2A, ADRA2B, or 7.5 μg for ADRA2C) were prepared in assay buffer supplemented with GDP at 2× final assay concentration (5 μM GDP) and dispensed into 96 well polypropylene, U-bottom Greiner plates. Then, 10 μL of compounds were added to assay plates and incubated for 10 min at room temperature. […] The binding reaction was incubated for 1 h at 37° C. Membranes in assay reactions were then transferred to GF/C filter plates (UniFilter, Perkin Elmer) and washed three times using a FilterMate Harvester (Perkin Elmer) with cold assay buffer containing no GDP. Filter plates were then dried at 40° C. overnight followed by the addition of 30 μL/well of Beta Plate Scintillation liquid. Plates were top and bottom sealed before being read on TopCount scintillation counter (Perkin Elmer, Waltham, MA).
Usually EC50 stands for the concentration that produces a half-maximal response. Regarding `FC(F)(F)Oc1cccc([C@H](Cc2ccccn2)c2cnc[nH]2)c1` [Compound 35, 2-[(2S)-2-(1H-imidazol-4-yl)-2-[3-(trifluoromethoxy)phenyl]ethyl] pyridine], the EC50 was over 500 nM. In the case of `COc1cccc(C[C@H](c2c[nH]cn2)c2cccc(C)c2C)n1` [Compound 3, 2-[(2S)-2-(2,3-dimethylphenyl)-2-(1H-imidazol-4-yl)ethyl]-6-methoxypyridine] it was under 10 nM. With `FC(F)Oc1ccccc1C(Cc1ccccn1)c1c[nH]cn1` (centres unmarked) [Compound 107, 4-[1-(o-difluoro-methoxyphenyl) 2-(2-pyridyl)ethyl] imidazole], the EC50 is over 500 nM. For `Cc1cccc(C(Cc2cc(C(F)(F)F)nn2C)c2c[nH]cn2)c1C` (centres unmarked) [Compound 310, 5-[2-(4-imidazolyl)-2-(2,3-xylyl)ethyl]-1-methyl-3-(trifluoromethyl)pyrazole] the value was under 10 nM; for `Cc1cccc([C@@H](Cc2cccnc2)c2cnc[nH]2)c1Cl` [Compound 61, 3-[(2R)-2-(2-chloro-3-methylphenyl)-2-(1H-imidazol-4-yl)ethyl]pyridine], 50 to 500 nM; for `Cc1cccc(C(Cc2c(C)noc2C)c2c[nH]cn2)c1C` (centres unmarked) [Compound 113, 4-[2-(4-imidazolyl)-2-(2,3-xylyl)ethyl]-3,5-dimethyl-isoxazole], 50 to 500 nM. As to `Cc1cccc([C@H](Cc2cccnc2)c2cnc[nH]2)c1Cl` [Compound 60, 3-[(2S)-2-(2-chloro-3-methylphenyl)-2-(1H-imidazol-4-yl)ethyl] pyridine], the half-maximal effective concentration (EC50) was under 10 nM. Consider `COc1nccc(CC(c2c[nH]cn2)c2cccc(C#N)c2F)n1` (centres unmarked) [Compound 177, 2-fluoro-3-[1-(4-imidazolyl)-2-(2-methoxy-4-pyrimidinyl)ethyl] benzonitrile], for which the EC50 lay in the range of 50 to 500 nM.

With `Cc1cccc(C(Cc2ccnnc2)c2cnc[nH]2)c1C` (centres unmarked) [Compound 104, 4-[2-(4-imidazolyl)-2-(2,3-xylyl)ethyl] pyridazine], the concentration for a half-maximal effect (EC50) was over 500 nM.

For `Cc1cccc([C@@H](Cc2ccccn2)c2cnc[nH]2)c1F` [Compound 40, 2-[(2R)-2-(2-fluoro-3-methylphenyl)-2-(1H-imidazol-4-yl)ethyl] pyridine], the EC50 lay in the range of 10 to 50 nM.

Consider `Cc1ccc(Cl)cc1C(Cc1cccnn1)c1c[nH]cn1` (centres unmarked) [Compound 225, 3-[2-(5-chloro-2-tolyl)-2-(4-imidazolyl)ethyl] pyridazine], for which the EC50 was over 500 nM. In the case of `Cc1cc(C)nc(CC(c2cnc[nH]2)c2cccc(C)c2C)c1` (centres unmarked) [Compound 95, 2-[2-(2,3-dimethylphenyl)-2-(1H-imidazol-4-yl)ethyl]-4,6-dimethyl-pyridine], the EC50 was under 10 nM. As to `COc1ccc(Cl)c(C(Cc2cccnn2)c2c[nH]cn2)c1` (centres unmarked) [Compound 227, 3-[2-(2-chloro-5-methoxyphenyl)-2-(4-imidazolyl)ethyl] pyridazine], the concentration for a half-maximal effect (EC50) is over 500 nM. For `COc1ccccc1[C@H](Cc1ccccn1)c1cnc[nH]1` [Compound 31, 2-[(2S)-2-(1H-imidazol-4-yl)-2-(2-methoxyphenyl)ethyl]pyridine] the value was over 500 nM; for `Cc1c(Cl)cccc1C(Cc1ccccn1)c1cnc[nH]1` (centres unmarked) [Compound 49, 2-[2-(3-chloro-2-methylphenyl)-2-(1H-imidazol-4-yl)ethyl] pyridine], 50 to 500 nM; for `COc1nccc(C[C@@H](c2cnc[nH]2)c2cccc(C)c2C)n1` [Compound 54, 4-[(2R)-2-(2,3-dimethylphenyl)-2-(1H-imidazol-4-yl)ethyl]-2-methoxy-pyrimidine], 50 to 500 nM. With `Fc1cccc(C(Cc2cccnn2)c2c[nH]cn2)c1Cl` (centres unmarked) [Compound 218, 3-[2-(2-chloro-3-fluorophenyl)-2-(4-imidazolyl)ethyl] pyridazine], the EC50 was over 500 nM. Turning to `Cc1nccc(C[C@H](c2cnc[nH]2)c2cccc(C)c2C)n1` [Compound 70, 4-[(2S)-2-(2,3-dimethylphenyl)-2-(1H-imidazol-4-yl)ethyl]-2-methyl-pyrimidine], the EC50 was under 10 nM. For `c1ccc(C[C@@H](c2cnc[nH]2)c2cccc3c2COC3)nc1` [Compound 46, 2-[(2R)-2-(1,3-dihydro-2-benzofuran-4-yl)-2-(1H-imidazol-4-yl)ethyl] pyridine] the value was over 500 nM; for `Cc1cccc([C@H](Cc2cncs2)c2c[nH]cn2)c1C` [Compound 129, 5-[(S)-2-(4-imidazolyl)-2-(2,3-xylyl)ethyl]-1,3-thiazole], under 10 nM.

Turning to `Cc1cccc([C@@H](Cc2ccccn2)c2cnc[nH]2)c1Cl` [Compound 48, 2-[(2R)-2-(2-chloro-3-methylphenyl)-2-(1H-imidazol-4-yl)ethyl]pyridine], the 50% effective concentration (EC50) lay in the range of 10 to 50 nM.

Consider `COc1cc(OC(F)(F)F)cc(C(Cc2ccnc(OC)n2)c2c[nH]cn2)c1` (centres unmarked) [Compound 204, 4-[2-(4-imidazolyl)-2-(3-methoxy-5-trifluoromethoxyphenyl)ethyl]-2-methoxypyrimidine], for which the EC50 was over 500 nM. Regarding `COc1cccc(C[C@H](c2c[nH]cn2)c2cccc(OC)c2Cl)n1` [Compound 111, 4-[(S)-1-(2-chloro-3-methoxyphenyl)-2-(6-methoxy-2-pyridyl)ethyl] imidazole], the 50% effective concentration (EC50) is 50 to 500 nM. For `Cc1cccc([C@H](Cc2cccnn2)c2c[nH]cn2)c1F` [Compound 138, 3-[(S)-2-(2-fluoro-3-tolyl)-2-(4-imidazolyl)ethyl] pyridazine] the value was over 500 nM; for `Cc1cccc(C(Cc2cncs2)c2c[nH]cn2)c1C` (centres unmarked) [Compound 116, 5-[2-(4-imidazolyl)-2-(2,3-xylyl)ethyl]-1,3-thiazole], 10 to 50 nM; for `Cc1nc(C[C@H](c2c[nH]cn2)c2cccc(C)c2C)cs1` [Compound 103, 4-[(S)-2-(4-imidazolyl)-2-(2,3-xylyl)ethyl]-2-methyl-1,3-thiazole], over 500 nM. For `Cc1nccc(CC(c2c[nH]cn2)c2cccc3c2ccn3C)n1` (centres unmarked) [Compound 164, 4-[2-(4-imidazolyl)-2 (1-methyl-4-indolyl)ethyl]-2-methylpyrimidine] the value was under 10 nM. As for `COc1cccc(C[C@H](c2cnc[nH]2)c2cccc3c2COC3)n1` [Compound 11, 2-[(2S)-2-(1,3-dihydro-2-benzofuran-4-yl)-2-(1H-imidazol-4-yl)ethyl]-6-methoxypyridine], the concentration giving a half-maximal response (EC50) is under 10 nM. In the case of `CCOc1ccc(C(Cc2cccnn2)c2c[nH]cn2)cc1C(F)(F)F` (centres unmarked) [Compound 226, 3-(2-[4-ethoxy-3-(trifluoromethyl)phenyl]-2-(4-imidazolyl)ethyl] pyridazine] it was over 500 nM; in that of `COc1cccc(C[C@@H](c2c[nH]cn2)c2cccc(Cl)c2Cl)n1` [Compound 98, 4-[(R)-1-(2,3-dichlorophenyl)-2-(6-methoxy-2-pyridyl)ethyl] imidazole], under 10 nM. In the case of `COc1nccc(CC(c2ccc(OC(F)(F)F)cc2)c2c[nH]cn2)n1` (centres unmarked) [Compound 203, 4-[2-(4-imidazolyl)-2 (p-trifluoromethoxyphenyl)ethyl]-2-methoxypyrimidine] it was over 500 nM; in that of `COc1cccc(C[C@@H](c2cnc[nH]2)c2cccc3c2CCO3)n1` [Compound 19, 2-[(2R)-2-(2,3-dihydro-1-benzofuran-4-yl)-2-(1H-imidazol-4-yl)ethyl]-6-methoxypyridine], 10 to 50 nM; in that of `Cc1cccc([C@@H](Cc2ccnn2C)c2c[nH]cn2)c1C` [Compound 130, 5-[(R)-2-(4-imidazolyl)-2-(2,3-xylyl)ethyl]-1-methyl-pyrazole], under 10 nM. For `COc1nccc(CC(c2c[nH]cn2)c2cc(Cl)ccc2C)n1` (centres unmarked) [Compound 184, 4-[2-(5-chloro-2-tolyl)-2-(4-imidazolyl)ethyl]-2-methoxypyrimidine] the value was 50 to 500 nM; for `COc1c(C)cccc1[C@H](Cc1ccccn1)c1cnc[nH]1` [Compound 33, 2-[(2S)-2-(1H-imidazol-4-yl)-2-(2-methoxy-3-methylphenyl)ethyl]pyridine], over 500 nM.

(Values after patent US20260042769A1, “TRIARYL AGONISTS OF ALPHA-2 ADRENERGIC RECEPTORS” (ALCEPTOR THERAPEUTICS, INC., priority 2023, published 2026).)
